The results in this text go back to patent US20100292224A1, “ISOTHIAZOLIDINE 1,1-DIOXIDE AND TETRAHYDRO-2H-1,2-THIAZINE 1,1-DIOXIDE DERIVATIVES AS P2X7 MODULATORS” (GLAXO GROUP LIMITED, priority 2007, published 2010).

In this test the target is T1, human recombinant P2X7 receptors (Homo sapiens, UniProt Q99572).
T1 construct: expressed in transfected cells
T1 sequence (Q99572 1-595): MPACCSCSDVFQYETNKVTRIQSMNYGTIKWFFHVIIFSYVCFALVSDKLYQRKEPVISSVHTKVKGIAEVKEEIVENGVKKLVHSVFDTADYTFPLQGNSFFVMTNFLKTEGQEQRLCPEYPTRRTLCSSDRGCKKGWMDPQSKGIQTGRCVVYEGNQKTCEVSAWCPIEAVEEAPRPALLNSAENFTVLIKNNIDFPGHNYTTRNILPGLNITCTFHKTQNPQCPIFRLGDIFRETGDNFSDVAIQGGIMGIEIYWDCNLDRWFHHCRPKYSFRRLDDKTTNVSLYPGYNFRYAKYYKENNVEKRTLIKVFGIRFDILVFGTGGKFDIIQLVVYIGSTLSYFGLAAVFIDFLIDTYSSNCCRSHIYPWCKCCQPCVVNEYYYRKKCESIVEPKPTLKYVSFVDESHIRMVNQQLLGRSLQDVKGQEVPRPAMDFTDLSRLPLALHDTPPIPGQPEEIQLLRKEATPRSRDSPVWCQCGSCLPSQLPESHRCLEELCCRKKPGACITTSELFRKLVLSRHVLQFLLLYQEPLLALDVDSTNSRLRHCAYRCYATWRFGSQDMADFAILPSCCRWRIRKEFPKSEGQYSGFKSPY
As to the kind of experiment: Ethidium Accumulation Assay. Format: cell-based. The following applies: HEK293 cells stably expressing human recombinant P2X7; blocking 1 mM ATP response; typically mean of more than one measurement; 'about' values; read-out: pIC50 in the Ethidium Accumulation Assay or a slightly modified version thereof (converted). How it is done: Studies were performed using NaCl assay buffer of the following composition: 140 mM NaCl, 10 mM HEPES [4-(2-hydroxyethyl)-1-piperazine-1-ethanesulfonic acid], 5 mM N-methyl-D-glucamine, 5.6 mM KCl, 10 mM D-glucose, 0.5 mM CaCl2(pH 7.4).
Human Embryonic Kidney (HEK) 293 cells, stably expressing human recombinant P2X7 receptors, were grown in poly-D-lysine pretreated 96 well plates for 18-24 hours. (The cloning of the human P2X7 receptor is described in U.S. Pat. No. 6,133,434, e.g. see Example 3 therein). The cells were washed twice with 350 μl of the assay buffer, before addition of 50 μl of the assay buffer containing the putative P2X7 receptor antagonist compound. (A small amount of dimethyl sulfoxide, for initially dissolving the compound, is optionally used and present in this 50 μl test compound sample.) The cells were then incubated at room temperature (19-21° C.) for 30 min before addition of ATP and ethidium (100 μM final assay concentration). The ATP concentration was chosen to be close to the EC80 for the receptor type and was 1 mM for studies on the human P2X7 receptor. Incubations were continued for 8 or 16 min and were terminated by addition of 25 μl of 1.3M sucrose containing 4 mM of the P2X7 receptor antagonist Reactive Black 5 (Aldrich). Cellular accumulation of ethidium was determined by measuring fluorescence (excitation wavelength of 530 nm and emission wavelength of 620 nm) from below the plate with a Can berra Packard Fluorocount (14 Station Road, Pangbourne, Reading, Berkshire RG8 7AN, United Kingdom) or a FlexStation II 384 from Molecular Molecular Devices (660-665 Eskdale Road, Wokingham, Berkshire RG41 5TS, United Kingdom). Antagonist plC50 values for blocking ATP responses were determined using iterative curve fitting techniques.
As to `CN1C(C(=O)NCc2ccc(F)cc2Cl)CCS1(=O)=O` (stereo not shown) [Example 3, N-[(2-chloro-4-fluorophenyl)methyl]-2-methyl-3-isothiazolidinecarboxamide 1,1-dioxide], the IC50 was 10 to 316 nM.
For `CC(C)CN1C(C(=O)NCc2ccc(Cl)cc2Cl)CCS1(=O)=O` (stereo not shown) [Example 4, N-[(2,4-dichlorophenyl)methyl]-2-(2-methylpropyl)-3-isothiazolidinecarboxamide 1,1-dioxide], the IC50 was 10 to 316 nM.
On to `CC(C)CN1C(C(=O)NCc2ccccc2Cl)CCS1(=O)=O` (stereo not shown) [Example 11, N-[(2-chlorophenyl)methyl]-2-(2-methylpropyl)-3-isothiazolidinecarboxamide 1,1-dioxide], for which the IC50 is 3980 to 15800 nM.
The figure for `CN1C(C(=O)NCc2ccc(Cl)cc2Cl)CCS1(=O)=O` (stereo not shown) [Example 13, N-[(2,4-dichlorophenyl)methyl]-2-methyl-3-isothiazolidinecarboxamide 1,1-dioxide] is 10 to 316 nM.
For `CCN1C(C(=O)NCc2ccc(F)cc2Cl)CCS1(=O)=O` (stereo not shown) [Example 15, N-[(2-chloro-4-fluorophenyl)methyl]-2-ethyl-3-isothiazolidinecarboxamide 1,1-dioxide], the IC50 was 10 to 316 nM.
Regarding `Cc1c(Cl)cccc1CNC(=O)C1CCS(=O)(=O)N1C` (stereo not shown) [Example 17, N-[(3-chloro-2-methylphenyl)methyl]-2-methyl-3-isothiazolidinecarboxamide 1,1-dioxide], the IC50 was 10 to 316 nM.
Regarding `Cc1c(Cl)cccc1CNC(=O)C1CCS(=O)(=O)N1C(C)C` (stereo not shown) [Example 18, N-[(3-chloro-2-methylphenyl)methyl]-2-(1-methylethyl)-3-isothiazolidinecarboxamide 1,1-dioxide], the IC50 was 10 to 316 nM.
The figure for `CCN1C(C(=O)NCc2cccc(Cl)c2C)CCS1(=O)=O` (stereo not shown) [Example 20, N-[(3-chloro-2-methylphenyl)methyl]-2-ethyl-3-isothiazolidinecarboxamide 1,1-dioxide] is 10 to 316 nM.
As for `CCN1C(C(=O)NCc2ccc(F)cc2C(F)(F)F)CCS1(=O)=O` (stereo not shown) [Example 21, 2-ethyl-N-{[4-fluoro-2-(trifluoromethyl)phenyl]methyl}-3-isothiazolidinecarboxamide 1,1-dioxide], the figure is 10 to 316 nM.
On to `CC(C)N1C(C(=O)NCc2ccc(F)cc2Cl)CCS1(=O)=O` (stereo not shown) [Example 22, N-[(2-chloro-4-fluorophenyl)methyl]-2-(1-methylethyl)-3-isothiazolidinecarboxamide 1,1-dioxide], for which the IC50 was 10 to 316 nM.
With `CCN1C(C(=O)NCc2ccc(Cl)cc2Cl)CCS1(=O)=O` (stereo not shown) [Example 24, N-[(2,4-dichlorophenyl)methyl]-2-ethyl-3-isothiazolidinecarboxamide 1,1-dioxide], the IC50 is 10 to 316 nM.
Turning to `CC(C)N1C(C(=O)NCc2ccc(Cl)cc2Cl)CCS1(=O)=O` (stereo not shown) [Example 27, N-[(2,4-dichlorophenyl)methyl]-2-(1-methylethyl)-3-isothiazolidinecarboxamide 1,1-dioxide], the IC50 is 10 to 316 nM.
Turning to `CN1C(C(=O)NCc2cccc(C(F)(F)F)c2Cl)CCS1(=O)=O` (stereo not shown) [Example 29, N-{[2-chloro-3-(trifluoromethyl)phenyl]methyl}-2-methyl-3-isothiazolidinecarboxamide 1,1-dioxide], the IC50 is 10 to 316 nM.
Consider `CN1C(C(=O)NCc2ccc(F)c(F)c2Cl)CCS1(=O)=O` (stereo not shown) [Example 30, N-[(2-chloro-3,4-difluorophenyl)methyl]-2-methyl-3-isothiazolidinecarboxamide 1,1-dioxide], for which the IC50 is 10 to 316 nM.
For the compound `CCN1C(C(=O)NCc2ccc(F)c(F)c2Cl)CCS1(=O)=O` (stereo not shown) [Example 31, N-[(2-chloro-3,4-difluorophenyl)methyl]-2-ethyl-3-isothiazolidinecarboxamide 1,1-dioxide], the IC50 is 10 to 316 nM.
Take `CCN1C(C(=O)NCc2cccc(C(F)(F)F)c2Cl)CCS1(=O)=O` (stereo not shown) [Example 32, N-{[2-chloro-3-(trifluoromethyl)phenyl]methyl}-2-ethyl-3-isothiazolidinecarboxamide 1,1-dioxide]: the IC50 is 10 to 316 nM.
For the compound `CN1C(C(=O)NCc2ccc(Cl)cc2Cl)CCCS1(=O)=O` (stereo not shown) [Example 35, N-[(2,4-dichlorophenyl)methyl]-2-methyltetrahydro-2H-1,2-thiazine-3-carboxamide 1,1-dioxide], the IC50 is 10 to 316 nM.
Regarding `CCN1C(C(=O)NCc2ccc(Cl)cc2Cl)CCCS1(=O)=O` (stereo not shown) [Example 36, N-[(2,4-dichlorophenyl)methyl]-2-ethyltetrahydro-2H-1,2-thiazine-3-carboxamide 1,1-dioxide], the IC50 was 10 to 316 nM.
For `CCN1C(C(=O)NCc2ccccc2Cl)CCCS1(=O)=O` (stereo not shown) [Example 39, N-[(2-chlorophenyl)methyl]-2-ethyltetrahydro-2H-1,2-thiazine-3-carboxamide 1,1-dioxide], the IC50 is 3980 to 15800 nM.
In the case of `Cc1cccc(Cl)c1CNC(=O)C1CCCS(=O)(=O)N1C(C)C` (stereo not shown) [Example 41, N-[(2-chloro-6-methylphenyl)methyl]-2-(1-methylethyl)tetrahydro-2H-1,2-thiazine-3-carboxamide 1,1-dioxide], the IC50 is 3980 to 15800 nM.
Consider `CC(C)N1C(C(=O)NCc2ccc(F)cc2Cl)CCCS1(=O)=O` (stereo not shown) [Example 43, N-[(2-chloro-4-fluorophenyl)methyl]-2-(1-methylethyl)tetrahydro-2H-1,2-thiazine-3-carboxamide 1,1-dioxide], for which the IC50 is 3980 to 15800 nM.
On to `CC(C)N1C(C(=O)NCc2ccccc2Cl)CCCS1(=O)=O` (stereo not shown) [Example 44, N-[(2-chlorophenyl)methyl]-2-(1-methylethyl)tetrahydro-2H-1,2-thiazine-3-carboxamide 1,1-dioxide], for which the IC50 is 3980 to 15800 nM.
`CC(C)N1C(C(=O)NCc2ccc(F)c(F)c2F)CCCS1(=O)=O` (stereo not shown) [Example 46, 2-(1-methylethyl)-N-[(2,3,4-trifluorophenyl)methyl]tetrahydro-2H-1,2-thiazine-3-carboxamide 1,1-dioxide]: the IC50 is 3980 to 15800 nM.
Regarding `CC(C)N1C(C(=O)NCc2ccc(F)cc2C(F)(F)F)CCCS1(=O)=O` (stereo not shown) [Example 47, N-{[4-fluoro-2-(trifluoromethyl)phenyl]methyl}-2-(1-methylethyl)tetrahydro-2H-1,2-thiazine-3-carboxamide 1,1-dioxide], the IC50 was 3980 to 15800 nM.
The figure for `CN1C(C(=O)NCc2ccc(F)cc2C(F)(F)F)CCCS1(=O)=O` (stereo not shown) [Example 48, N-{[4-fluoro-2-(trifluoromethyl)phenyl]methyl}-2-methyltetrahydro-2H-1,2-thiazine-3-carboxamide 1,1-dioxide] is 3980 to 15800 nM.
